Results reported in article PMC5581453, “Combination therapy of PKCζ and COX-2 inhibitors synergistically suppress melanoma metastasis” (Journal of Experimental & Clinical Cancer Research : CR, 2017).

Target: T1, PKCζ (protein kinase C ζ) (Homo sapiens, UniProt Q05513)
T1 construct: gene PRKCZ
T1 sequence (Q05513 1-592): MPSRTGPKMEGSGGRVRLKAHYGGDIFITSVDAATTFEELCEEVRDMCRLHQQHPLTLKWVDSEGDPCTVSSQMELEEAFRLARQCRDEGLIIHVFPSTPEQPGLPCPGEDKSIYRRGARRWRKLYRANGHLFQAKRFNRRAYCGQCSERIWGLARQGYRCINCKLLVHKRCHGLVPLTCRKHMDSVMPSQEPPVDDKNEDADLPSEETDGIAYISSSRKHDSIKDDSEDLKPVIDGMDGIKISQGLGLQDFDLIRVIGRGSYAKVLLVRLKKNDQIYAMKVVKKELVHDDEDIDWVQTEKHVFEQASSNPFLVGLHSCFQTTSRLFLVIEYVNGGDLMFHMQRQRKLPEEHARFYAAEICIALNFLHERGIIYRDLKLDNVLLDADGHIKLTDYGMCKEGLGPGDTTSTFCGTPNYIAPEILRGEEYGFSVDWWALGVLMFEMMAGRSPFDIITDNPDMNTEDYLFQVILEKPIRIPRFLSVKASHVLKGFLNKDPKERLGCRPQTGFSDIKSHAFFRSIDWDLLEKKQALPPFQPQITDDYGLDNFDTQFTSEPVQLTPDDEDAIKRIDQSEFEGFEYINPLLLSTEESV
Test: Z'-LYTE kinase assay (Ser/Thr […] peptide) with purchased PKCζ (Invitrogen Cat. No. […]), […] ATP
Type: biochemical

- IC50: ~10 µM
SMILES: Cc1c(CSC(=N)N)c(C)c(CSC(=N)N)c(C)c1CSC(=N)N [J-4]
